Laboratory results as given in patent publication EP0342850A1, “Enantiomeric glutaramide diuretic agents” (Pfizer Limited, priority 1988, dated 1989).

Assays:
mice = test: induction of natriuresis in mice in vivo (procedure of European patent application 0274234); conditions: dose (mg/kg) given
Text: (§1) Appropriate reagents and conditions for the various coupling and deprotection steps, described above, together with procedures for determining the biological activity of the products of formula (II) and appropriate pharmaceutical compositions and dosage ranges for their use are described in European patent application no. 0274234.
(§2) The activity of the racemate and separated enantiomers of the cis-4-{1-[2-carboxy-3-(2-methoxyethoxy)propyl]-1-cyclopentanecarboxamido}-1-cyclohexanecarboxylic acid was assessed by measuring their ability to inhibit the neutral endopeptidase E.C.3.4.24.11 in vitro or to induce natriuresis in mice in vivo following the procedure described in European patent application 0274234.

[1] = tested on: neutral endopeptidase E.C.3.4.24.11; test: inhibition of neutral endopeptidase E.C.3.4.24.11 in vitro (procedure of European patent application 0274234); format: biochemical; conditions: general statement on the separated enantiomers of the diacid
Text: as §1, §2

SMILES	Natriuresis in mouse (i.v.) (mice)	biological activity [1]
COCCOCC(CC1(C(=O)N[C@H]2CC[C@@H](C(=O)O)CC2)CCCC1)C(=O)O (mixture of isomers) [(±) R,S, cis-4-{1-[2-carboxy-3-(2-methoxyethoxy)propyl]-1-cyclopentanecarboxamido}-1-cyclohexanecarboxylic acid]	active at 3 mg/kg	–
COCCOC[C@H](CC1(C(=O)N[C@H]2CC[C@@H](C(=O)O)CC2)CCCC1)C(=O)O (racemic) [(±) S, (S)-cis-4-{1-[2-Carboxy-3-(2-methoxyethoxy)propyl]-1-cyclopentanecarboxamido}-1-cyclohexanecarboxylic acid]	active at 1.5 mg/kg	–
COCCOCC(CC1(C(=O)N[C@H]2CC[C@@H](C(=O)O)CC2)CCCC1)C(=O)O (relative stereo) [(-) R, cis-4-{1-[2-carboxy-3-(2-methoxyethoxy)propyl]-1-cyclopentanecarboxamido}-1-cyclohexanecarboxylic acid]	inactive at 3 mg/kg	virtually inactive
